In brackets after ≈: the same amount, converted by molar mass. Activity calls are given as the source filed them. The rule behind the calls is not given here.
How the values were obtained:
Assay type in all cases: functional
[1] = test system: Trichophyton mentagrophytes; test: Antifungal activity against Trichophyton mentagrophytes IFO 40996 assessed as growth inhibition at 37 degC for 48 hr
Trichophyton rubrum [2] = test: Antifungal activity against Trichophyton rubrum IFO 9185 assessed as growth inhibition at 37 degC for 48 hr; conditions: IFO 9185, 48 h
Aspergillus fumigatus [3] = test: Antifungal activity against Aspergillus fumigatus HIC 6094 assessed as growth inhibition at 37 degC for 48 hr
Candida albicans [4] = test: Antifungal activity against Candida albicans ATCC 10231 assessed as growth inhibition at 37 degC for 48 hr; conditions: ATCC 10231, 48 h
[5] = test system: Trichophyton mentagrophytes; test: Antifungal activity against Trichophyton mentagrophytes IFO 40996 assessed as growth inhibition at 300 ug/disc at 37 degC for 48 hr; conditions: for zone of inhibition at 300 µg/disc: IFO 40996, 48 h, read-out: IZ
Trichophyton rubrum [6] = test: Antifungal activity against Trichophyton rubrum IFO 9185 assessed as growth inhibition at 300 ug/disk at 37 degC for 48 hr; conditions: for zone of inhibition at 300 µg/disc: IFO 9185, 48 h, read-out: IZ
Aspergillus fumigatus [7] = test: Antifungal activity against Aspergillus fumigatus HIC 6094 assessed as growth inhibition at 300 ug/disc at 37 degC for 48 hr; conditions: for zone of inhibition at 300 µg/disc: HIC 6094, 48 h, read-out: IZ
Candida albicans [8] = test: Antifungal activity against Candida albicans ATCC 10231 assessed as growth inhibition at 300 ug/disk at 37 degC for 48 hr; conditions: ATCC 10231, 48 h, read-out: IZ
[9] = test system: Chromobacterium violaceum; test: Antibacterial activity against Chromobacterium violaceum MTCC 2656 assessed as growth arrest at 37 degC for 24 hr; conditions: MTCC 2656, 24 h
Klebsiella aerogenes [10] = test: Antibacterial activity against Enterobacter aerogenes MTCC 39 assessed as growth arrest at 37 degC for 24 hr; conditions: MTCC 39, 24 h
Pseudomonas aeruginosa [11] = test: Antibacterial activity against Pseudomonas aeruginosa MTCC 741 assessed as growth arrest at 37 degC for 24 hr; conditions: MTCC 741, 24 h
Staphylococcus aureus [12] = test: Antibacterial activity against Staphylococcus aureus MTCC 96 assessed as growth arrest at 37 degC for 24 hr; conditions: MTCC 96, 24 h
[13] = test system: Lysinibacillus sphaericus; test: Antibacterial activity against Lysinibacillus sphaericus MTCC 11 assessed as growth arrest at 37 degC for 24 hr; conditions: MTCC 11, 24 h
Bacillus subtilis [14] = test: Antibacterial activity against Bacillus subtilis MTCC 441 assessed as growth arrest at 37 degC for 24 hr; conditions: MTCC 441, 24 h
[15] = test system: Chromobacterium violaceum; test: Antibacterial activity against Chromobacterium violaceum MTCC 2656 assessed as inhibition zones at 300 ug/disk at 37 degC for 24 hr; conditions: MTCC 2656, 24 h, read-out: IZ
Klebsiella aerogenes [16] = test: Antibacterial activity against Enterobacter aerogenes MTCC 39 assessed as inhibition zones at 300 ug/disk at 37 degC for 24 hr; conditions: MTCC 39, 24 h, read-out: IZ
Pseudomonas aeruginosa [17] = test: Antibacterial activity against Pseudomonas aeruginosa MTCC 741 assessed as inhibition zones at 300 ug/disk at 37 degC for 24 hr; conditions: MTCC 741, 24 h, read-out: IZ
Staphylococcus aureus [18] = test: Antibacterial activity against Staphylococcus aureus MTCC 96 assessed as inhibition zones at 300 ug/disc at 37 degC for 24 hr; conditions: MTCC 96, 24 h, read-out: IZ
[19] = test system: Lysinibacillus sphaericus; test: Antibacterial activity against Lysinibacillus sphaericus MTCC 11 assessed as inhibition zones at 300 ug/disk at 37 degC for 24 hr; conditions: MTCC 11, 24 h, read-out: IZ
Bacillus subtilis [20] = test: Antibacterial activity against Bacillus subtilis MTCC 441 assessed as inhibition zones at 300 ug/disk at 37 degC for 24 hr; conditions: MTCC 441, 24 h, read-out: IZ
Caenorhabditis elegans = test: Nematicidal activity against Caenorhabditis elegans assessed as immobility; conditions: read-out: LD50 (the source's name)
[21] = test system: Ditylenchus myceliophagus; test: Nematicidal activity against Ditylenchus myceliophagus assessed as immobility; conditions: read-out: LD50 (the source's name)

| SMILES | MBC (Trichophyton rubrum [2]) | MIC (Trichophyton rubrum [2]) | MBC (Candida albicans [4]) | MIC (Candida albicans [4]) | zone of inhibition at 300 µg/disc (Candida albicans [8]) | MBC [9] | MIC [9] | MBC (Klebsiella aerogenes [10]) | MIC (Klebsiella aerogenes [10]) | MBC (Pseudomonas aeruginosa [11]) | MIC (Pseudomonas aeruginosa [11]) | MBC (Staphylococcus aureus [12]) | MIC (Staphylococcus aureus [12]) | MBC [13] | MIC [13] | MBC (Bacillus subtilis [14]) | MIC (Bacillus subtilis [14]) | zone of inhibition at 300 µg/disc [15] | zone of inhibition at 300 µg/disc (Klebsiella aerogenes [16]) | zone of inhibition at 300 µg/disc (Pseudomonas aeruginosa [17]) | further results |
| --- | --- | --- | --- | --- | --- | --- | --- | --- | --- | --- | --- | --- | --- | --- | --- | --- | --- | --- | --- | --- | --- |
| COc1ccc(Cc2ccc(OC)c(C3SC4C(=NN(Cc5ccccc5)C4c4ccc(F)cc4)N3c3ccc(Cl)cc3)c2)cc1C1SC2C(=NN(Cc3ccccc3)C2c2ccc(F)cc2)N1c1ccc(Cl)cc1 (stereo not drawn) | 12.5 µg/mL (≈ 11.7 µM) | 6.25 µg/mL (≈ 5.83 µM) | 6.25 µg/mL (≈ 5.83 µM) | 3.12 µg/mL (≈ 2.91 µM) | 21 mm | 6.25 µg/mL (≈ 5.83 µM) | 6.25 µg/mL (≈ 5.83 µM) | 12.5 µg/mL (≈ 11.7 µM) | 6.25 µg/mL (≈ 5.83 µM) | 50 µg/mL (≈ 46.6 µM) | 12.5 µg/mL (≈ 11.7 µM) | 25 µg/mL (≈ 23.3 µM) | 6.25 µg/mL (≈ 5.83 µM) | 50 µg/mL (≈ 46.6 µM) | 6.25 µg/mL (≈ 5.83 µM) | 12.5 µg/mL (≈ 11.7 µM) | 6.25 µg/mL (≈ 5.83 µM) | 18 mm | 23 mm | 18 mm | MBC ([1]; IFO 40996, 48 h): 25 µg/mL (≈ 23.3 µM); MIC ([1]; IFO 40996, 48 h): 12.5 µg/mL (≈ 11.7 µM); MBC (Aspergillus fumigatus [3]; HIC 6094, 48 h): 12.5 µg/mL (≈ 11.7 µM); MIC (Aspergillus fumigatus [3]; HIC 6094, 48 h): 6.25 µg/mL (≈ 5.83 µM); zone of inhibition at 300 µg/disc [5]: 16 mm; zone of inhibition at 300 µg/disc (Trichophyton rubrum [6]): 14 mm; zone of inhibition at 300 µg/disc (Aspergillus fumigatus [7]): 17 mm; zone of inhibition at 300 µg/disc (Staphylococcus aureus [18]): 30 mm; zone of inhibition at 300 µg/disc [19]: 23 mm; zone of inhibition at 300 µg/disc (Bacillus subtilis [20]): 23 mm; LC50 (Caenorhabditis elegans): 200 µg/mL (≈ 187 µM); LC50 [21]: 180 µg/mL (≈ 168 µM) |
| COc1ccc(N2N=C3C(SC(c4cc(Cc5ccc(OC)c(C6SC7C(=NN(c8ccc(OC)cc8)C7c7ccc(F)cc7)N6c6ccc(Cl)cc6)c5)ccc4OC)N3c3ccc(Cl)cc3)C2c2ccc(F)cc2)cc1 (stereo not drawn) | 50 µg/mL (≈ 45.3 µM) | 25 µg/mL (≈ 22.6 µM) | 50 µg/mL (≈ 45.3 µM) | 25 µg/mL (≈ 22.6 µM) | 14 mm | 50 µg/mL (≈ 45.3 µM) | 6.25 µg/mL (≈ 5.66 µM) | 25 µg/mL (≈ 22.6 µM) | 12.5 µg/mL (≈ 11.3 µM) | 50 µg/mL (≈ 45.3 µM) | 12.5 µg/mL (≈ 11.3 µM) | 25 µg/mL (≈ 22.6 µM) | 12.5 µg/mL (≈ 11.3 µM) | 50 µg/mL (≈ 45.3 µM) | 12.5 µg/mL (≈ 11.3 µM) | 12.5 µg/mL (≈ 11.3 µM) | 12.5 µg/mL (≈ 11.3 µM) | 23 mm | 21 mm | 20 mm | MBC ([1]; IFO 40996, 48 h): 50 µg/mL (≈ 45.3 µM); MIC ([1]; IFO 40996, 48 h): 25 µg/mL (≈ 22.6 µM); MBC (Aspergillus fumigatus [3]): inactive; MIC (Aspergillus fumigatus [3]): inactive; inhibition zone (IZ) [5]: inactive; inhibition zone (IZ) (Trichophyton rubrum [6]): inactive; inhibition zone (IZ) (Aspergillus fumigatus [7]): inactive; zone of inhibition at 300 µg/disc (Staphylococcus aureus [18]): 28 mm; zone of inhibition at 300 µg/disc [19]: 16 mm; zone of inhibition at 300 µg/disc (Bacillus subtilis [20]): 17 mm; LC50 (Caenorhabditis elegans): 820 µg/mL (≈ 743 µM); LC50 [21]: 900 µg/mL (≈ 815 µM) |
| COc1ccc(Cc2ccc(OC)c(C3SC4C(=NN(C)C4c4ccc(F)cc4)N3c3ccc(Cl)cc3)c2)cc1C1SC2C(=NN(C)C2c2ccc(F)cc2)N1c1ccc(Cl)cc1 (stereo not drawn) | 25 µg/mL (≈ 27.2 µM) | 6.25 µg/mL (≈ 6.79 µM) | 25 µg/mL (≈ 27.2 µM) | 12.5 µg/mL (≈ 13.6 µM) | 18 mm | 50 µg/mL (≈ 54.4 µM) | 12.5 µg/mL (≈ 13.6 µM) | 25 µg/mL (≈ 27.2 µM) | 12.5 µg/mL (≈ 13.6 µM) | 25 µg/mL (≈ 27.2 µM) | 12.5 µg/mL (≈ 13.6 µM) | 12.5 µg/mL (≈ 13.6 µM) | 12.5 µg/mL (≈ 13.6 µM) | 25 µg/mL (≈ 27.2 µM) | 12.5 µg/mL (≈ 13.6 µM) | 50 µg/mL (≈ 54.4 µM) | 12.5 µg/mL (≈ 13.6 µM) | 19 mm | 21 mm | 21 mm | MBC [1]: inactive; MIC [1]: inactive; MBC (Aspergillus fumigatus [3]; HIC 6094, 48 h): 50 µg/mL (≈ 54.4 µM); MIC (Aspergillus fumigatus [3]; HIC 6094, 48 h): 6.25 µg/mL (≈ 6.79 µM); zone of inhibition at 300 µg/disc [5]: 16 mm; zone of inhibition at 300 µg/disc (Trichophyton rubrum [6]): 13 mm; zone of inhibition at 300 µg/disc (Aspergillus fumigatus [7]): 15 mm; zone of inhibition at 300 µg/disc (Staphylococcus aureus [18]): 20 mm; zone of inhibition at 300 µg/disc [19]: 20 mm; zone of inhibition at 300 µg/disc (Bacillus subtilis [20]): 21 mm; LC50 (Caenorhabditis elegans): 210 µg/mL (≈ 228 µM); LC50 [21]: 190 µg/mL (≈ 207 µM) |
| COc1ccc(Cc2ccc(OC)c(C3SC4C(=NN(Cc5ccccc5)C4c4ccc(F)cc4)N3c3ccc(C)cc3)c2)cc1C1SC2C(=NN(Cc3ccccc3)C2c2ccc(F)cc2)N1c1ccc(C)cc1 (stereo not drawn) | 25 µg/mL (≈ 24.2 µM) | 12.5 µg/mL (≈ 12.1 µM) | 6.25 µg/mL (≈ 6.06 µM) | 3.12 µg/mL (≈ 3.03 µM) | 22 mm | 12.5 µg/mL (≈ 12.1 µM) | 12.5 µg/mL (≈ 12.1 µM) | 50 µg/mL (≈ 48.5 µM) | 12.5 µg/mL (≈ 12.1 µM) | 25 µg/mL (≈ 24.2 µM) | 12.5 µg/mL (≈ 12.1 µM) | 6.25 µg/mL (≈ 6.06 µM) | 6.25 µg/mL (≈ 6.06 µM) | 12.5 µg/mL (≈ 12.1 µM) | 6.25 µg/mL (≈ 6.06 µM) | 12.5 µg/mL (≈ 12.1 µM) | 6.25 µg/mL (≈ 6.06 µM) | 17 mm | 22 mm | 14 mm | MBC ([1]; IFO 40996, 48 h): 25 µg/mL (≈ 24.2 µM); MIC ([1]; IFO 40996, 48 h): 25 µg/mL (≈ 24.2 µM); MBC (Aspergillus fumigatus [3]; HIC 6094, 48 h): 25 µg/mL (≈ 24.2 µM); MIC (Aspergillus fumigatus [3]; HIC 6094, 48 h): 25 µg/mL (≈ 24.2 µM); zone of inhibition at 300 µg/disc [5]: 16 mm; zone of inhibition at 300 µg/disc (Trichophyton rubrum [6]): 15 mm; zone of inhibition at 300 µg/disc (Aspergillus fumigatus [7]): 16 mm; zone of inhibition at 300 µg/disc (Staphylococcus aureus [18]): 24 mm; zone of inhibition at 300 µg/disc [19]: 14 mm; zone of inhibition at 300 µg/disc (Bacillus subtilis [20]): 20 mm; LC50 (Caenorhabditis elegans): 210 µg/mL (≈ 204 µM); LC50 [21]: 190 µg/mL (≈ 184 µM) |
